From ChEMBL document CHEMBL1146379, “Solid phase synthesis and SAR of small molecule agonists for the GPR40 receptor” (Bioorg Med Chem Lett, 2007)

Tests used:
[1] = Volume of distribution at steady state in rat; type: ADME, organism-based; settings: in vivo, read-out: Vdss
[2] = Half life in po dosed rat; type: ADME, organism-based; settings: in vivo
[3] = Half life in iv dosed rat; type: ADME, organism-based; settings: in vivo
[4] = Distribution coefficient, log D at pH 7.4; type: physicochemical; settings: octanol/water
[5] = target: Free fatty acid receptor 1 (Homo sapiens, UniProt O14842); assay: Agonist activity at GPR40 receptor expressed in CHO cells by reporter gene assay; type: functional, cell-based
[6] = target: Hydroxycarboxylic acid receptor 2 (Homo sapiens, UniProt Q8TDS4); assay: Activity at HM74A receptor
[7] = target: T1, Prostaglandin E2 receptor EP1 subtype (Homo sapiens, UniProt P34995); assay: Activity at EP1 receptor
T1 sequence (P34995 whole entry): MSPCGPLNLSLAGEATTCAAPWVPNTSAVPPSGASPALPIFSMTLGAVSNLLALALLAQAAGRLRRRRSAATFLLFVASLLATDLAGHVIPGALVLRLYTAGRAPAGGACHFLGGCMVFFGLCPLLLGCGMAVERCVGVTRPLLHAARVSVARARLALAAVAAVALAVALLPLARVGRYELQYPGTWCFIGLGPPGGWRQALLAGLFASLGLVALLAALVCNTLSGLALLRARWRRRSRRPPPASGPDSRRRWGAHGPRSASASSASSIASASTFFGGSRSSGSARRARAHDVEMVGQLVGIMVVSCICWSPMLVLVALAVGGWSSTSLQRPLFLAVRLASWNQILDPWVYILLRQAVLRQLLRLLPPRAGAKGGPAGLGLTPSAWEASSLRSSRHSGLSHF

Cytochrome P450 1A2 = target: T2, Cytochrome P450 1A2 (Homo sapiens, UniProt P05177); assay: Inhibition of CYP1A2; type: ADME
T2 sequence (P05177 whole entry): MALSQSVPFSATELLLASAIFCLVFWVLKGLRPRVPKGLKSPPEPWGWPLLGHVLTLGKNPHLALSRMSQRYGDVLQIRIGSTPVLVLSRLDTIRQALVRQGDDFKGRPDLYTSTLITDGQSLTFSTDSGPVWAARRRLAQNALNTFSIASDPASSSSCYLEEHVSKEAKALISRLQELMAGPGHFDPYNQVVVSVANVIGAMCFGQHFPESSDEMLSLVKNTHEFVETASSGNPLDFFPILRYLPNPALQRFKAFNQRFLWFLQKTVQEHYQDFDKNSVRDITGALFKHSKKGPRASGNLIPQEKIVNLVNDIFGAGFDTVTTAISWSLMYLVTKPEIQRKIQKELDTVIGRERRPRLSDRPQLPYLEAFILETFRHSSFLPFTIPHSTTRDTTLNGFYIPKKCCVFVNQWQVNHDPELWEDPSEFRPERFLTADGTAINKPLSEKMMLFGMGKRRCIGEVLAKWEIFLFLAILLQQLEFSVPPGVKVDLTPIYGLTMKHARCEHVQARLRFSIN

Cytochrome P450 2C9 = Cytochrome P450 2C9 (Homo sapiens, UniProt P11712); assay: Inhibition of CYP2C9; type: ADME
Cytochrome P450 2C19 = Cytochrome P450 2C19 (Homo sapiens, UniProt P33261); assay: Inhibition of CYP2C19; type: ADME
Cytochrome P450 3A4 = Cytochrome P450 3A4 (Homo sapiens, UniProt P08684); assay: Inhibition of CYP3A4; type: ADME
Liver microsomes = assay: Intrinsic clearance in human liver microsomes; type: ADME, Microsome

Cytochrome P450 3A4, sequence (P08684 whole entry): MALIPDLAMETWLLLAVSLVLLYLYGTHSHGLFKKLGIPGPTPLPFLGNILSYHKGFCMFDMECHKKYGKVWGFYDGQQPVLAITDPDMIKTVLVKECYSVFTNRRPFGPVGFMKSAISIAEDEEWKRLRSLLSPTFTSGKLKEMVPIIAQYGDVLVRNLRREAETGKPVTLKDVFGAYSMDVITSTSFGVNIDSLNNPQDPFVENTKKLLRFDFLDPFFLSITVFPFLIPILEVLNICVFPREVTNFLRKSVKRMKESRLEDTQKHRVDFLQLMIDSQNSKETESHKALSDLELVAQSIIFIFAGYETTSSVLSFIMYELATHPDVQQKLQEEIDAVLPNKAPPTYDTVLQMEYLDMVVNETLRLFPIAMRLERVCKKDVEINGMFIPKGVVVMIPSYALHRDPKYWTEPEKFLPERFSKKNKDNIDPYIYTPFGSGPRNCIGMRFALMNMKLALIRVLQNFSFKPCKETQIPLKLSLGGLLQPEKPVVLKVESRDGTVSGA
Cytochrome P450 2C9, sequence (P11712 whole entry): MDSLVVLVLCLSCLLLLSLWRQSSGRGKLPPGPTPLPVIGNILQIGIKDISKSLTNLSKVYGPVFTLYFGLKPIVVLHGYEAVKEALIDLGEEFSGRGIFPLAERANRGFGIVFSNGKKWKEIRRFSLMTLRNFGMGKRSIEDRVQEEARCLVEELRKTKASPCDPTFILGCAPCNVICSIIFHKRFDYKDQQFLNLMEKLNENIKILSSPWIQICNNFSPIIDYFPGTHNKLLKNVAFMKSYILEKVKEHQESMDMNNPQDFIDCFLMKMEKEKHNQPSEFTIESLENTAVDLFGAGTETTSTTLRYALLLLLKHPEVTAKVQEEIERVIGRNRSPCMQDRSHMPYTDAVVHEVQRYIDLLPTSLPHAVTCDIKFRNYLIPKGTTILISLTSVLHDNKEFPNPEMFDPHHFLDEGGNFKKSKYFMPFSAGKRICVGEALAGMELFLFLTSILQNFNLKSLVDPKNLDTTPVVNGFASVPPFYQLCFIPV
Cytochrome P450 2C19, sequence (P33261 whole entry): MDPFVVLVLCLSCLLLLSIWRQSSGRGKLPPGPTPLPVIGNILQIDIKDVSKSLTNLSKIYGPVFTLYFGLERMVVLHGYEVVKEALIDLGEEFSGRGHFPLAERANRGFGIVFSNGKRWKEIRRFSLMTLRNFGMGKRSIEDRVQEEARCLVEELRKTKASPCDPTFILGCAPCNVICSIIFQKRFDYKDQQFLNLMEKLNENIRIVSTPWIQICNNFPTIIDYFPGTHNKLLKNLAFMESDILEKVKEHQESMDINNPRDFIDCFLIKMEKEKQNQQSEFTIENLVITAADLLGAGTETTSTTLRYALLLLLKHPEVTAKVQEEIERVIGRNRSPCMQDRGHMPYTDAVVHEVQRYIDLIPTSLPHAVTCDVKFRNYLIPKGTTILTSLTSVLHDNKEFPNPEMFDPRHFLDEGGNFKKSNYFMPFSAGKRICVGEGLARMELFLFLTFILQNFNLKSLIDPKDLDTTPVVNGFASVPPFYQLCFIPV
Hydroxycarboxylic acid receptor 2, sequence (Q8TDS4 whole entry): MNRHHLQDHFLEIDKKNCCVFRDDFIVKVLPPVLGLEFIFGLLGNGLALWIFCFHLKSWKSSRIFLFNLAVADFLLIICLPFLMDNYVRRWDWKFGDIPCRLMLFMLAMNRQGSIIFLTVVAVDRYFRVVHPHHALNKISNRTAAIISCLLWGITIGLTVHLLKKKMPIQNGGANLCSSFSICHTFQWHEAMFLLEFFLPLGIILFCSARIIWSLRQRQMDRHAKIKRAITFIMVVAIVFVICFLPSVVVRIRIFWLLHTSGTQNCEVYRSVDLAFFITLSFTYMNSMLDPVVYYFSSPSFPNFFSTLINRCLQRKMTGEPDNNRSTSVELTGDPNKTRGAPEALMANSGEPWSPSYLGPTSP
Free fatty acid receptor 1, sequence (O14842 whole entry): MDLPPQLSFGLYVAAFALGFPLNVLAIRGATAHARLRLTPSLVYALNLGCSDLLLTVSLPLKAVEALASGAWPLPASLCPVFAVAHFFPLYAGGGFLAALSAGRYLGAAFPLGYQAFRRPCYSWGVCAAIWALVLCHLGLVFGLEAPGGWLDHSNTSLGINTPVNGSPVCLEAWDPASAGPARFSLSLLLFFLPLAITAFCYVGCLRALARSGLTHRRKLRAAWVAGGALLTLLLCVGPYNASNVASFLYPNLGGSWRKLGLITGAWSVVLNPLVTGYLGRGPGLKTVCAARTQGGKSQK

For `O=C(O)CCc1ccc(NCc2cccc(Oc3ccccc3)c2)cc1` [GW9508], which Vd [1] is on record?
The Vd was 4.7 L/kg.

What about the half-life [2] of the same compound?
The half-life was 5.9 h.

What about the half-life [3] of the same compound?
The half-life was 5.3 h.

And the logD [4]?
The logD was 1.95.

And the %max [5]?
The %max was 69%.

And the EC50 [6]?
The EC50 was > 6.31 µM.

What about the Ki [7] of the same compound?
Its Ki is > 1.58 µM.

What about the IC50 (Cytochrome P450 1A2) of the same compound?
The IC50 was > 33 µM.

What about the IC50 (Cytochrome P450 2C9) of the same compound?
Its IC50 is > 33 µM.

What about the IC50 (Cytochrome P450 2C19) of the same compound?
Its IC50 is > 33 µM.

What about the IC50 (Cytochrome P450 3A4) of the same compound?
Its IC50 is > 33 µM.

And the CL (Liver microsomes)?
Its CL is 0.74 mL/min/g.
